Experimental data as given in US5512464A, “Method of producing high fructose corn syrup from glucose using noble gases” (American Air Liquide, priority 1994, dated 1996).
Entries after “also recorded” stand apart in the source; their conditions may differ.

Assays:
[1] = target: T1, glucose isomerase (Streptomyces murinus, UniProt P37031); experiment: Glucose isomerase column runs under gas saturation (Example 7); type: biochemical; conditions: for reaching point of equilibrium (fructose to glucose vs glucose to fructose conversion): 100 hr run, gas saturated columns, FIG. 13; for averages of fructose to glucose and glucose to fructose conversions: averages for each gas, FIG. 15; for conversion of glucose to fructose (activity+flow rate difference): lower flow rate, under Ne, Ar and N2, FIG. 11
T1 construct: purchased Novo Sweetzyme T
Description: A comprehensive experiment was undertaken in order to relate the effects of noble gases upon the important process parameters of temperature, flow rate, enzyme activity and reaction equilibrium. In this experiment, four identical jacketed 1.6×35 cm (70 cc bed volume) columns containing 15 grams dry weight (40 cc bed volume) of the glucose isomerase packing used in the Vial. Runs were prepared according to the protocol outlined above. The columns and substrates were saturated with the gas of interest from a choice of argon, neon, nitrogen, krypton, xenon, helium, or a decile combination of any two or three of these.
One column was run at 0.2 ml/min at 50°, one at 0.2 ml/min at 60°, one at 0.5 ml/min at 50°, and one at 0.5 ml/min at 60°. […] During the first set of experiments, glucose feedstock (as prepared above) was used. During the second set, fructose feedstock of identical concentration was used to analyze the reverse reaction.
Data collected included flow rate, % glucose, % fructose, quantitative evaluation of fructose and glucose, dry solids, temperature, and residual gases.
Comparison of the data for each combination of experiments allows the determination of the effect of the gas, the temperature, the flow rate, the enzyme activity, and the reaction equilibrium. These are each determined independently, then the contribution of each parameter to the others can be calculated. For instance, elevating the temperature increases the flow rate, while lowering temperature and increasing the flow rate maximizes gas effects.

[2] = target: T1, glucose isomerase; experiment: Effect of gases on glucose isomerase reaction (vial runs, general statements); type: biochemical; conditions: for order of enhancing effect: glucose isomerase, generally observed
Description: Two sets of 125 ml serum vials are prepared for each studied gas, one containing the glucose substrate solution (80 ml per vial) and the other one containing Sweetzyme T (5 g dry/vial).
On day D, place the substrate vials into a shaking water bath (60° C., 140 rpm). Allow them to equilibrate in temperature. For each substrate vial, fill a 60 cc B-D syringe with the appropriate gas or gas mixture and inject it in the vial. Remove the substrate vial from the shaker bath and replace it with the corresponding enzyme vial. Allow the positive pressure in the substrate vial to fill the syringe with glucose solution up to 60 ml. Stopper syringe needle with a septum. Repeat this procedure for each vial. When all the substrate vials have been sampled, inject the content of each syringe (60 ml of gas-saturated glucose solution) into the corresponding enzyme vial. The enzyme vials are injected at 2 minute intervals. The time of the injection determine t0 for each vial.
The respective concentrations of glucose and fructose in the samples are determined by High Pressure Liquid Chromatography.

[3] = test system: α-amylase; experiment: Effect of noble gases on α-amylase reaction; type: biochemical, Bacillus licheniformis; conditions: generally observed
Source text: PNPG7 is p-nitrophenyl-α-D-maltoheptaoside.
1. Reaction Principle: [drawing 3] 2.

[4] = target: T2, amyloglucosidase (Aspergillus niger, UniProt P69328); experiment: Effect of noble gases on amyloglucosidase reaction; type: biochemical; conditions: amylyoglucoside (so in the source), generally observed
T2 construct: purchased Sigma Chemical A-7420
Source text: 1. Reaction Principle: [drawing 3] 2. Solution Preparation:

[5] = test system: amylase, amyloglucosidase and glucose isomerase; experiment: Enzymatic reaction enhancement in the HFCS process (all three enzymes); type: biochemical
Source text: Generally, in accordance with the present invention, enzymatic reaction enhancements measured in terms of either rate of yield or stability parameters, and are relative to reactions conducted in air or with no added gases, or to reactions run with added nitrogen, or to a combination of the above. Depending upon the relative controls, enhancements of rate between about 0 and 20% and yield enhancements of about 0 to 5% for glucose isomerase have been obtained.

[6] = Gas solubility; type: physicochemical

T1 sequence (P37031 whole entry): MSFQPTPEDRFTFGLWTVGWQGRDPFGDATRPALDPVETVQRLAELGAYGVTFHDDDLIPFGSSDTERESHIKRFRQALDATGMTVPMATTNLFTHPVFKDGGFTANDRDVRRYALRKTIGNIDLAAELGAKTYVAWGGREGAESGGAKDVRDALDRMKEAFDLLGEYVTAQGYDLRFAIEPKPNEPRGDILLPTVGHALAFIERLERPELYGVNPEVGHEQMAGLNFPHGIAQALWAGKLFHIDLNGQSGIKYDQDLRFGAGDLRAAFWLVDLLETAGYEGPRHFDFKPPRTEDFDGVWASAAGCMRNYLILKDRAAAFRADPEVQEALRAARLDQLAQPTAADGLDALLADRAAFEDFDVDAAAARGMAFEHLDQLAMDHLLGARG
T2 sequence (P69328 25-640): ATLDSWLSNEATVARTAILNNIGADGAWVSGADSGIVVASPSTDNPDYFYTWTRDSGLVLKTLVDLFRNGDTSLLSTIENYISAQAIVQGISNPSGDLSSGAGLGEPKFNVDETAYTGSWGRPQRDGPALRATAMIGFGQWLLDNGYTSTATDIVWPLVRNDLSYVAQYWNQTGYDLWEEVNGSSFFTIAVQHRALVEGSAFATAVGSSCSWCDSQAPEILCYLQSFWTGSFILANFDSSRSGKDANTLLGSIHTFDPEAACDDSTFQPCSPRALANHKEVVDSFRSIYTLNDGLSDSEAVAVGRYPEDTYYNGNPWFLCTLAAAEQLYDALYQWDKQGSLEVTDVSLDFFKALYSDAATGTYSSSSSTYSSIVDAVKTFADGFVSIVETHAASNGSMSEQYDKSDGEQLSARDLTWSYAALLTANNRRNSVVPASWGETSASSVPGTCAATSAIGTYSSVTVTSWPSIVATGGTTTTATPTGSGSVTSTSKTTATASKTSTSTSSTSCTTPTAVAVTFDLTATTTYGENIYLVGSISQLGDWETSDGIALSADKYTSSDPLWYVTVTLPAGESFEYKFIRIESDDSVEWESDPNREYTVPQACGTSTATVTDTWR

[Ne] [neon]
reaching point of equilibrium (fructose to glucose vs glucose to fructose conversion) [1]: reach equilibrium before nitrogen saturated columns | averages of fructose to glucose and glucose to fructose conversions [1]: improvement | conversion of glucose to fructose (activity+flow rate difference) [1]: significant but lesser enhancement over nitrogen | order of enhancing effect [2]: Ne>Ar>Kr>Xe>He | order of enhancing effect [3]: Xe>Ar>Ne>Kr>He | order of enhancing effect [4]: Xe>Ar>Ne>Kr>He

[Ar] [argon]
reaching point of equilibrium (fructose to glucose vs glucose to fructose conversion) [1]: reach equilibrium before nitrogen saturated columns | averages of fructose to glucose and glucose to fructose conversions [1]: improvement | conversion of glucose to fructose (activity+flow rate difference) [1]: highest conversion | order of enhancing effect [2]: Ne>Ar>Kr>Xe>He | order of enhancing effect [3]: Xe>Ar>Ne>Kr>He | order of enhancing effect [4]: Xe>Ar>Ne>Kr>He

[He] [helium]
order of enhancing effect [2]: Ne>Ar>Kr>Xe>He | order of enhancing effect [3]: Xe>Ar>Ne>Kr>He | order of enhancing effect [4]: Xe>Ar>Ne>Kr>He | effectiveness in enhancing enzymatic activity [5]: effective | solubility [6]: low solubility

[Kr] [krypton]
order of enhancing effect [2]: Ne>Ar>Kr>Xe>He | order of enhancing effect [3]: Xe>Ar>Ne>Kr>He | order of enhancing effect [4]: Xe>Ar>Ne>Kr>He

[Xe] [xenon]
order of enhancing effect [2]: Ne>Ar>Kr>Xe>He | order of enhancing effect [3]: Xe>Ar>Ne>Kr>He | order of enhancing effect [4]: Xe>Ar>Ne>Kr>He

O=O [oxygen]
inhibition of glucose isomerase / Sweetzyme T activity [2]: greatly inhibited; also recorded: inhibitor
